Source: patent US5089273A, “Ecteinascidins 729, 743, 745, 759A, 759B and 770” (priority 1990, dated 1992)
Values after ≈ are worked out from the molar mass of the structure shown.

What was measured:
B16 Melanoma = test: Antitumor activity vs. B16 Melanoma; format: in vivo; conditions: 0.01 mg/kg; Table 5
M. luteus = test: Antimicrobial activity vs. M. luteus (disk zones of inhibition); format: cell-based; conditions: for zone of inhibition at 0.05 µg/disc / zone of inhibition at 0.1 µg/disc / zone of inhibition at 0.2 µg/disc / zone of inhibition at 0.4 µg/disc / zone of inhibition at 0.8 µg/disc / zone of inhibition at 1.6 µg/disc: Micrococcus luteus; for zone of inhibition at 0.05 µg/disc: 50 ng/6.35-mm disk; for zone of inhibition at 0.1 µg/disc: 100 ng/6.35-mm disk; for zone of inhibition at 0.2 µg/disc: 200 ng/6.35-mm disk; for zone of inhibition at 0.4 µg/disc: 400 ng/6.35-mm disk; for zone of inhibition at 0.8 µg/disc: 800 ng/6.35-mm disk; for zone of inhibition at 1.6 µg/disc: 1600 ng/6.35-mm disk; for antimicrobial activity (in words): dilutions accurate to within a factor of 2
Description: (§1) The antimicrobial activities (vs. M. luteus) and the cytotoxic activities (vs. CV-1 cells) of the ecteinascidins and ecteinascidin 743 derivatives are shown in Table 1 and 2. […] All of the derivatives of ecteinascidin 743 that were prepared have antimicrobial and cytotoxic activities.

CV-1 cells = test: Cytotoxic activity vs. CV-1 cells (disk zones of inhibition); format: cell-based; conditions: Cercopithecidae, read-out: Zones of Inhibition; for zone of inhibition at 0.05 µg/disc: 50 ng/6.35-mm disk; for zone of inhibition at 0.1 µg/disc: 100 ng/6.35-mm disk; for zone of inhibition at 0.2 µg/disc: 200 ng/6.35-mm disk; for zone of inhibition at 0.4 µg/disc: 400 ng/6.35-mm disk; for zone of inhibition at 0.8 µg/disc: 800 ng/6.35-mm disk; for zone of inhibition at 1.6 µg/disc: 1600 ng/6.35-mm disk
Description: as §1

bacteria = test: Antibacterial Activity (disk zone of inhibition, Example 4); format: cell-based
Excerpt: | Zone of inhibition (mm)

P388 leukemia = test: In vivo P388 mouse leukemia test; conditions: for T/C (%): Table 4; for antitumor activity (in words): mouse, in vivo; for T/C: Example 6
Excerpt: Compounds of this invention are also active in vivo against P388 leukemia in mice. The P388 mouse leukemia test is described in detail in a publication by G. L. Neil et al., Cancer Treatment Reports, 63: 1971-1978 (1979).

Sarcina lutea sens. = test: Antimicrobial Spectrum, zones of inhibition; format: cell-based; conditions: Micrococcus luteus; 10 μg/disk; 6.35-mm disk
Escherichia coli = test: Antimicrobial Spectrum, zones of inhibition; format: cell-based; conditions: 10 μg/disk, 6.35-mm disk
DNA = test: biomedical induction assay (BIA), an assay for DNA interaction
Bacillus subtilis = test: Antimicrobial Spectrum, zones of inhibition; format: cell-based; conditions: 10 μg/disk, 6.35-mm disk
Bacillus subtilis syn = test: Antimicrobial Spectrum, zones of inhibition; format: cell-based; conditions: 10 μg/disk, 6.35-mm disk
[1] = tested on: L1210 mouse leukemia cells; test: L1210 Tube Dilution Assay; format: cell-based
Excerpt: The L1210 tube dilution assay is described in detail in a publication by L. H. Li, et al., Cancer Research, 39:4816 (1979). ID50 and ID90 refer to the concentration of ecteinascidin needed to inhibit cell growth by […], respectively.

Klebsiella pneumoniae = test: Antimicrobial Spectrum, zones of inhibition; format: cell-based; conditions: 10 μg/disk, 6.35-mm disk
Mycobacterium avium = test: Antimicrobial Spectrum, zones of inhibition; format: cell-based; conditions: 10 μg/disk, 6.35-mm disk
Saccharomyces cerevisiae = test: Antimicrobial Spectrum, zones of inhibition; format: cell-based; conditions: 10 μg/disk, 6.35-mm disk
Pseudomonas aeruginosa = test: Antimicrobial Spectrum, zones of inhibition; format: cell-based; conditions: 10 μg/disk, 6.35-mm disk
Staphylococcus aureus = test: Antimicrobial Spectrum, zones of inhibition; format: cell-based; conditions: 10 μg/disk, 6.35-mm disk
Sarcina lutea = test: Antimicrobial Spectrum, zones of inhibition; format: cell-based; conditions: Micrococcus luteus; 10 μg/disk; 6.35-mm disk
Penicillium oxalicum = test: Antimicrobial Spectrum, zones of inhibition; format: cell-based; conditions: 10 μg/disk, 6.35-mm disk

Compound: COc1cc2c(cc1O)CCN[C@]21CS[C@@H]2c3c(OC(C)=O)c(C)c4c(c3[C@H](COC1=O)N1[C@@H]2[C@@H]2N[C@@H](Cc3cc(C)c(OC)c(O)c32)[C@@H]1O)OCO4 [Ecteinascidin 729]
- T/C (%) (B16 Melanoma): 246%
- zone of inhibition at 0.05 µg/disc (M. luteus): 7 mm
- zone of inhibition at 0.1 µg/disc (M. luteus): 8 mm
- zone of inhibition at 0.2 µg/disc (M. luteus): 11 mm
- zone of inhibition at 0.4 µg/disc (M. luteus): 15 mm
- zone of inhibition at 0.8 µg/disc (M. luteus): 16 mm
- zone of inhibition at 1.6 µg/disc (M. luteus): 18 mm
- antimicrobial activity (in words) (M. luteus): approximately equivalent and represent the most potent compounds in the series
- zone of inhibition at 0.05 µg/disc (CV-1 cells): 9 mm
- zone of inhibition at 0.1 µg/disc (CV-1 cells): 10 mm
- zone of inhibition at 0.2 µg/disc (CV-1 cells): 10 mm
- zone of inhibition at 0.4 µg/disc (CV-1 cells): 13 mm
- zone of inhibition at 0.8 µg/disc (CV-1 cells): 16 mm
- zone of inhibition at 1.6 µg/disc (CV-1 cells): 18 mm
- zone of inhibition at 0.063 µg/disc (bacteria; 0.063 μg/disk): 19 mm
- zone of inhibition at 0.125 µg/disc (bacteria; 0.125 μg/disk): 20 mm
- zone of inhibition at 0.25 µg/disc (bacteria; 0.250 μg/disk): 22 mm
- T/C (%) (P388 leukemia; 0.0038 mg/kg): 214%
- antitumor activity (in words) (P388 leukemia): strong antitumor activity
- antitumor activity (in words) (P388 leukemia; listed as Et 729): the most active antitumor agent

Compound: COc1cc2c(cc1O)CCN[C@]21CS[C@@H]2c3c(OC(C)=O)c(C)c4c(c3[C@H](COC1=O)N1[C@@H]2[C@H]2c3c(cc(C)c(OC)c3O)C[C@@H]([C@@H]1O)N2C)OCO4 [Ecteinascidin 743]
- zone of inhibition at 10 µg/disc (Sarcina lutea sens.): 35 mm
- zone of inhibition at 10 µg/disc (Escherichia coli): 11 mm
- zone of inhibition at 0.05 µg/disc (M. luteus): 9 mm
- zone of inhibition at 0.1 µg/disc (M. luteus): 12 mm
- zone of inhibition at 0.2 µg/disc (M. luteus): 13 mm
- zone of inhibition at 0.4 µg/disc (M. luteus): 14 mm
- zone of inhibition at 0.8 µg/disc (M. luteus): 20 mm
- zone of inhibition at 1.6 µg/disc (M. luteus): 23 mm
- antimicrobial activity (in words) (M. luteus): approximately equivalent and represent the most potent compounds in the series
- result in biomedical induction assay (BIA) (DNA): negative
- zone of inhibition at 0.05 µg/disc (CV-1 cells): 14 mm
- zone of inhibition at 0.1 µg/disc (CV-1 cells): 16 mm
- zone of inhibition at 0.2 µg/disc (CV-1 cells): 20 mm
- zone of inhibition at 0.4 µg/disc (CV-1 cells): 23 mm
- zone of inhibition at 0.8 µg/disc (CV-1 cells): 23 mm
- zone of inhibition at 1.6 µg/disc (CV-1 cells): 28 mm
- zone of inhibition at 10 µg/disc (Bacillus subtilis): 25 mm
- zone of inhibition at 10 µg/disc (Bacillus subtilis syn): 26 mm
- Zone of inhibition (bacteria; 0.005 μg/disk): trace
- zone of inhibition at 0.01 µg/disc (bacteria; 0.01 μg/disk): 7 mm
- zone of inhibition at 0.02 µg/disc (bacteria; 0.02 μg/disk): 9 mm
- zone of inhibition at 0.05 µg/disc (bacteria; 0.05 μg/disk): 12 mm
- zone of inhibition at 0.1 µg/disc (bacteria; 0.1 μg/disk): 14 mm
- zone of inhibition at 0.2 µg/disc (bacteria; 0.2 μg/disk): 17 mm
- IC90 ([1]; L1210, concentration needed to inhibit cell growth by 90 percent, in vitro, read-out: ID90 (the source's name)): 1.7 ng/mL (≈ 2.23 nM)
- IC50 ([1]; L1210, read-out: ID50): 0.5 ng/mL (≈ 0.656 nM)
- zone of inhibition at 10 µg/disc (Klebsiella pneumoniae): 20 mm
- zone of inhibition at 10 µg/disc (Mycobacterium avium): 17 mm
- zone of inhibition at 10 µg/disc (Saccharomyces cerevisiae): 0 mm
- zone of inhibition at 10 µg/disc (Pseudomonas aeruginosa): 0 mm
- zone of inhibition at 10 µg/disc (Staphylococcus aureus): 19 mm
- T/C (%) (P388 leukemia; 0.015 mg/kg): 167%
- T/C (P388 leukemia; 0.031 mg/kg): 161
- T/C (P388 leukemia; 0.063 mg/kg): toxic
- zone of inhibition at 10 µg/disc (Sarcina lutea): 27 mm
- zone of inhibition at 10 µg/disc (Penicillium oxalicum): 10 mm
